ChEMBL document CHEMBL5653631, “A Potent and Selective ULK1 Inhibitor Suppresses Autophagy and Sensitizes Cancer Cells to Nutrient Stress” (iScience, 2018)

How the values were obtained:
[1] = target: Myosin light chain kinase, smooth muscle (Homo sapiens) (UniProt Q15746); assay: Inhibition of human recombinant smMLCK at 15 nM in presence of ATP by radiometric assay relative to control
[2] = target: T1, Ephrin type-B receptor 4 (Homo sapiens) (UniProt P54760); assay: Inhibition of human recombinant EphB4 at 15 nM related to control ULK1
T1 sequence (whole entry): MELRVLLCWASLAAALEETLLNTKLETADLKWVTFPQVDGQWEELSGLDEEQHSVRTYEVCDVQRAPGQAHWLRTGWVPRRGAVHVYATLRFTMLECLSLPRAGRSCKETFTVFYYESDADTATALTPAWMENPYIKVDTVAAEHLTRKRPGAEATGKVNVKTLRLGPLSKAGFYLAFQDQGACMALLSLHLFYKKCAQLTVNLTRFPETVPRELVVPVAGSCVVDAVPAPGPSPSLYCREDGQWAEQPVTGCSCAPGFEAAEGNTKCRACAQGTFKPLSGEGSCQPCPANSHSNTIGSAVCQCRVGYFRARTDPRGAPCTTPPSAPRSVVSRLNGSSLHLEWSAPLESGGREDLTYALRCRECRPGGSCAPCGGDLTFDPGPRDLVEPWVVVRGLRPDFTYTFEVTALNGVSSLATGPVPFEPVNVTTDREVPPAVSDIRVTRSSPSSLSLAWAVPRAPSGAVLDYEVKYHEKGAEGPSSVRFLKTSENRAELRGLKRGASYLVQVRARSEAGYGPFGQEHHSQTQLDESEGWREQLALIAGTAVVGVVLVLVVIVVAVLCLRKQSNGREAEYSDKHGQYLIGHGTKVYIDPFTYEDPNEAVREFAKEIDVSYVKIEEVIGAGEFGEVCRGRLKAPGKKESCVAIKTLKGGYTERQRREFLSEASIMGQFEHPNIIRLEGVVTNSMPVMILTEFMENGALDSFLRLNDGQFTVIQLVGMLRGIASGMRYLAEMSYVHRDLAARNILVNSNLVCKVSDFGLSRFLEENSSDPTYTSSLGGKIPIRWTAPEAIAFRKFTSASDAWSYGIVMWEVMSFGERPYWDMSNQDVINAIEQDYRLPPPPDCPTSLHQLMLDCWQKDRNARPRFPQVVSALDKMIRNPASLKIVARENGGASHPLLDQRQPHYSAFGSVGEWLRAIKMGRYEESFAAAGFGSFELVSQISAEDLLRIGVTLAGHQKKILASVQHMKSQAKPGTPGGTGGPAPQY

[3] = target: T2, Ephrin type-A receptor 8 (Homo sapiens) (UniProt P29322); assay: Inhibition of human recombinant EphA8 at 500 nM in presence of ATP by radiometric assay relative to control
T2 sequence (whole entry): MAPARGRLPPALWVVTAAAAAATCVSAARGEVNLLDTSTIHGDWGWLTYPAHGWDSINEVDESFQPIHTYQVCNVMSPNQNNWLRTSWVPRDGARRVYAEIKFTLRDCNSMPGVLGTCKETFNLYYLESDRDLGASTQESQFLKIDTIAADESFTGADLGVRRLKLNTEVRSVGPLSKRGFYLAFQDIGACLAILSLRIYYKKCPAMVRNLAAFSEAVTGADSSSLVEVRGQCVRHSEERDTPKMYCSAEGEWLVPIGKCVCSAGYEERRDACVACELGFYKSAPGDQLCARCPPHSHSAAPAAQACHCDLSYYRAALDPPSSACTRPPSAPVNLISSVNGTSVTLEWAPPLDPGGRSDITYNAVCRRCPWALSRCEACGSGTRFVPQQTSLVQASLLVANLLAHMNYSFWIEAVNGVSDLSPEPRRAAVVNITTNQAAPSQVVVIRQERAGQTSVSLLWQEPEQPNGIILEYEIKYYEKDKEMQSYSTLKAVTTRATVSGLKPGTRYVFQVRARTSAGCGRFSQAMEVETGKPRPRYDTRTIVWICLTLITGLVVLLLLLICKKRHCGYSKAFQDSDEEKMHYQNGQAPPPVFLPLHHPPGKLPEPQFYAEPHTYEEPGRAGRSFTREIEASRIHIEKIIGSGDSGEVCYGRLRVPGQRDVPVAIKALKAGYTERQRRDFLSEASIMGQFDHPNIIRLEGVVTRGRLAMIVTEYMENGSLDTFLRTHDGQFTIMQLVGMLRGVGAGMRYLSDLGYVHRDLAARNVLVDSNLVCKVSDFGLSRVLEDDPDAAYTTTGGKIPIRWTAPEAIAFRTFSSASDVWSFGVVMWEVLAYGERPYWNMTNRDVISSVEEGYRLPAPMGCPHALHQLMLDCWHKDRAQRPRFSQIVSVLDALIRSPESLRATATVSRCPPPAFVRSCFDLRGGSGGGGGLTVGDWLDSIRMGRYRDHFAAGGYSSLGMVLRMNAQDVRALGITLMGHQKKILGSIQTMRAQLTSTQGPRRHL

[4] = target: Bone morphogenetic protein receptor type-1B (Homo sapiens) (UniProt O00238); assay: Inhibition of human recombinant BMPR1B at 500 nM related to control ULK1
Sequence of Bone morphogenetic protein receptor type-1B (Homo sapiens) (O00238 whole entry): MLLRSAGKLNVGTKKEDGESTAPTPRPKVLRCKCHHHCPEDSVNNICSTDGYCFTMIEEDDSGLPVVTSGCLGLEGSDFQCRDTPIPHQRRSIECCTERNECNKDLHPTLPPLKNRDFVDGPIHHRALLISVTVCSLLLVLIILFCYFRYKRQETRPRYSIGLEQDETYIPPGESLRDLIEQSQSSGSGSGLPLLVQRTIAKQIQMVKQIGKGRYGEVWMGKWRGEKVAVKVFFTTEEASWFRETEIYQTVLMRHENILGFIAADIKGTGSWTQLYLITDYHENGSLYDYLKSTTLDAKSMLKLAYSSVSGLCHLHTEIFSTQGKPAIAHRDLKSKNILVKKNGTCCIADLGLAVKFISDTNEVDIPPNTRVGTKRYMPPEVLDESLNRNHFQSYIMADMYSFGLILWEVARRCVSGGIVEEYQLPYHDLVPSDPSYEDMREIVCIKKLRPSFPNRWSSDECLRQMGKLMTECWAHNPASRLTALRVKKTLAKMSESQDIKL

Sequence of Myosin light chain kinase, smooth muscle (Homo sapiens) (Q15746 whole entry): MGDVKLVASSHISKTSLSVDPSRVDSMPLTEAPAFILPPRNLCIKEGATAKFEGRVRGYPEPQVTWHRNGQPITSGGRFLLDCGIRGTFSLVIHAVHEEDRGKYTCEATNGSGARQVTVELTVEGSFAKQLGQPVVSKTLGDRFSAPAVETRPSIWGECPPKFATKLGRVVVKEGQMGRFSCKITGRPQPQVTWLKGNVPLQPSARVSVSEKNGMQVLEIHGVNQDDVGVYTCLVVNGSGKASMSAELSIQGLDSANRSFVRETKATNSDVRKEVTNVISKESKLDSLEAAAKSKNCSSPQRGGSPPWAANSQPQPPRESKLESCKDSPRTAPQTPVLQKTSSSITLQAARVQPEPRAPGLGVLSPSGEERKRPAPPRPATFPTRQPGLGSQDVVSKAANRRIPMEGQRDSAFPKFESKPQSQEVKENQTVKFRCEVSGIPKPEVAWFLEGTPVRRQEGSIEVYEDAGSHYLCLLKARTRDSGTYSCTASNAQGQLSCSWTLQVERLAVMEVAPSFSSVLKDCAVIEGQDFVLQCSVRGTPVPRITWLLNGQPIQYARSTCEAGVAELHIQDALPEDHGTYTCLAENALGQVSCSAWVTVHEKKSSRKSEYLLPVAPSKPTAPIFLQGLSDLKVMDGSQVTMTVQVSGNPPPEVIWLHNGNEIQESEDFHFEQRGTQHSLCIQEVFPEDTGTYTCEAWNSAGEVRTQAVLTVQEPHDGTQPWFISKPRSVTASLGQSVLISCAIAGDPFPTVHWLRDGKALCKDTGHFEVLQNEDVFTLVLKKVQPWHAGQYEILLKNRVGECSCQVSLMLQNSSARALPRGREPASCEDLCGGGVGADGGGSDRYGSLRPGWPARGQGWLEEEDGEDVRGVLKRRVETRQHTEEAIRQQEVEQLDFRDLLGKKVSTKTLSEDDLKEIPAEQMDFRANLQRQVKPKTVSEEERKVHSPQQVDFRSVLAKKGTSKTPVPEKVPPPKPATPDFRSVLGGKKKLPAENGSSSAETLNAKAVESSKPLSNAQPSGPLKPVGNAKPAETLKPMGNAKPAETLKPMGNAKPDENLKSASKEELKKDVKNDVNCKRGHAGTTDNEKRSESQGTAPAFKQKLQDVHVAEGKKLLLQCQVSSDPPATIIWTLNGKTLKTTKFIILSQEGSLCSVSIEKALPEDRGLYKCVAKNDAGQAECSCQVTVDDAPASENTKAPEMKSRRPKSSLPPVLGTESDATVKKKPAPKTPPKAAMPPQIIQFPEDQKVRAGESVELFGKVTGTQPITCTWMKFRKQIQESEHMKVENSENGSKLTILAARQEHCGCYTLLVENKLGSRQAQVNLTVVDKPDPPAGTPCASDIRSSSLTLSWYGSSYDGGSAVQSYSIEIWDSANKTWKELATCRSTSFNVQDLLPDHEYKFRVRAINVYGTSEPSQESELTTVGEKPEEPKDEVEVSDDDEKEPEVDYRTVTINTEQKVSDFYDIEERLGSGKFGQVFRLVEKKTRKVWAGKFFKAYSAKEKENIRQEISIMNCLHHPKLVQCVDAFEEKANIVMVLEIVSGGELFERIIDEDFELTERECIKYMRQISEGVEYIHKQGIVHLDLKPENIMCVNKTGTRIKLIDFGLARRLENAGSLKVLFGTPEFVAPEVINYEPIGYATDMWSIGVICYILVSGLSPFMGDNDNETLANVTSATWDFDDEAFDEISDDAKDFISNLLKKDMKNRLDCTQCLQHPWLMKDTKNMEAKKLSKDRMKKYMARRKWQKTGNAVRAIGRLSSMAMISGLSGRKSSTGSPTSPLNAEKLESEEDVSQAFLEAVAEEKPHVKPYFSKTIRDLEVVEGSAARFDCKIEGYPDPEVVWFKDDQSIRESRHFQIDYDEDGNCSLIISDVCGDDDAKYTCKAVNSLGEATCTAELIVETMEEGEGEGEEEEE

Row | inhibition [1] [%] | fold change (FC) [2] | inhibition [3] [%] | fold change (FC) [4] | SMILES
1 | 0 | 0.03 |  |  | CC(C)[C@H](NC(=O)c1cc(-c2cnn3cc(-c4ccc(OCCN5CCCCC5)cc4)cnc23)cs1)C(F)(F)F
2 |  |  | 2 | 0 | CNC(=O)c1ccccc1Oc1nc(Nc2cc(OC)c(OC)c(OC)c2)ncc1Br
